We go through 3 molecules from patent US9949965B2, “Tricyclic indole Mcl-1 inhibitors and uses thereof” (priority 2014, dated 2018).

The target of assay [1] is T1, Bcl-xL (residues 1-209, loop 45-86 deleted) (Homo sapiens, UniProt Q07817, DEL45-86).
T1 construct: Bcl-xL (residues 1-209, loop 45-86 deleted)
Nature of the assay: biochemical. The class given is binding. Particulars: Table 3; 10 nM FITC-Bak, 4 nM Bcl-xL; top concentration 20 uM. The method, then: (§1) Bak Peptide Binding Assay
(§2) Compound affinity was measured using a fluorescence polarization anisotropy competition assay. Anisotropy measurements were carried out in 384-well, black, flat-bottom plates (Greiner Bio-one, Monroe, N.C., USA). The assay was run using a fluorescein isothiocyanate-labeled BH3 peptide derived from Bak (FITC-AHx-[…] […] H2) (SEQ ID NO: 1) that was purchased from GenScript (Piscataway, N.J.) at >95% purity and used without further purification. 10 nM FITC-Bak peptide and 14 nM recombinant Mcl-1 (residues 172-327) were added to assay buffer (3 mM dithiothreitol, 50 mM NaCl, 20 mM Tris, pH 7.5). For selectivity assays, 40 nM Bcl-2 (residues 1-207^A96T,G110R, Δ35-91, replaced with Bcl-xL35-50) or 4 nM Bcl-xL (residues 1-209, loop 45-86 deleted) were incubated with 10 nM FITC-Bak in assay buffer.
(§3) Compounds are diluted in DMSO in a 10-point, 3-fold serial dilution scheme. 2.5 uL compound is added to 47.5 uL of assay buffer containing FITC-Bak and protein, for a final DMSO concentration of 5% and a top concentration of 20 uM. […] The plate was mixed and incubated for 90 minutes at room temperature. Anisotropy is measured at excitation wavelength 480 nm and emission wavelength 535 nm using an EnVision Multi-label plate reader (PerkinElmer, Wellesley, Mass., USA). Fluorescence anisotropy is plotted against compound concentration to generate an IC50 (inhibitor concentration at which 50% of bound peptide is displaced) by fitting the data to a 4-parameter logistic model using XLFit software (Guildford, Surrey, UK). IC50 is converted to a binding dissociation constant (Ki value) according to the formula of Wang Z. FEBS Lett (1996) 3, 245: Ki=[I]50/([L]50/Kd+[P]0/Kd+1) where [I]50 is the concentration of the free inhibitor at 50% inhibition, [L]50 is the concentration of the free labeled ligand at 50% inhibition, [P]0 is the concentration of the free protein at 0% inhibition, Kd represents the dissociation constant of the FITC peptide probe.

In assay [2] the target is T2, recombinant Mcl-1 (residues 172-327) (Homo sapiens, UniProt Q07820).
T2 construct: 14 nM recombinant Mcl-1 (residues 172-327) were added to assay buffer
The assay can be described thus: Bak peptide binding assay: fluorescence polarization anisotropy competition (FITC-Bak BH3 peptide). Particulars: 10 nM FITC-Bak, 14 nM Mcl-1, Ki converted from IC50. On the procedure:
as §1, §2, §3

[3] abbreviates: Ki For Inhibition of Mcl-I Protein, Table 2, binned range.

Where two headings read alike, the source gives them in different places.

T2 sequence (Q07820 172-327): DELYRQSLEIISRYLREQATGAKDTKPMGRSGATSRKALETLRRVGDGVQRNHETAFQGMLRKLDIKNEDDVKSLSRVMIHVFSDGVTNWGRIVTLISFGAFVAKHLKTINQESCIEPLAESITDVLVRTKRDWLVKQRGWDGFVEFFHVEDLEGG
T1 sequence (Q07817 other isoform, or with tags, fused parts or gaps DEL45-86): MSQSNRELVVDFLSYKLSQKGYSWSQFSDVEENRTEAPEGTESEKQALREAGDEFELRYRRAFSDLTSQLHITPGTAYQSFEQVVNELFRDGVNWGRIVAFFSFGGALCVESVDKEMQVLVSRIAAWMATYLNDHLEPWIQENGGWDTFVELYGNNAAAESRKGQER

As to `O=C(O)c1c(CCCOc2cccc3ccccc23)c2cccc3c2n1CCC[S+]3[O-]` (centres unmarked) [Example 20, 7-(3-(naphthalen-1-yloxy)propyl)-3,4-dihydro-2H-[1,4]thiazepino[2,3,4-hi]indole-6-carboxylic acid 1-oxide], the Ki in assay [1] is above 20000 nM; in assay [2] (setting [3]) it was at most 100 nM.

With `Cc1cc(OCCCc2c(C(=O)O)n3c4c(cccc24)SCCC3)cc(C)c1Cl` [Example 23, 7-(3-(4-chloro-3,5-dimethylphenoxy)propyl)-3,4-dihydro-2H-[1,4]thiazepino[2,3,4-hi]indole-6-carboxylic acid], the inhibitory constant (Ki) in assay [1] was above 20000 nM; in assay [2] (setting [3]) it was at most 100 nM; in assay [2] (Table 3, read-out: Ki Mcl-1), 40 nM.

Take `Cc1cc(OCCCc2c(C(=O)O)n3c4c(c(Cl)ccc24)OCC3)cc(C)c1Cl` [Example 27, 9-chloro-6-(3-(4-chloro-3,5-dimethylphenoxy)propyl)-2,3-dihydro-[1,4]oxazino[2,3,4-hi]indole-5-carboxylic acid]: the Ki is above 20000 nM in assay [1]; at most 100 nM in assay [2] (setting [3]); 9 nM in assay [2] (Table 3, read-out: Ki Mcl-1).
